In publication PMC3733634, “A Computational Module Assembled from Different Protease Family Motifs Identifies PI PLC from Bacillus cereus as a Putative Prolyl Peptidase with a Serine Protease Scaffold” (PLoS ONE, 2013):
Counter-ions that a name gives are not always drawn.

Legend:
[1] = biological target: T1, cold-active Vibrio alkaline phosphatase (VAP) (Vibrio sp. G15-21, UniProt Q93P54); experiment: inhibition of native alkaline phosphatase activity at pH […] (n = […]); type: biochemical
T1 sequence (Q93P54 20-521): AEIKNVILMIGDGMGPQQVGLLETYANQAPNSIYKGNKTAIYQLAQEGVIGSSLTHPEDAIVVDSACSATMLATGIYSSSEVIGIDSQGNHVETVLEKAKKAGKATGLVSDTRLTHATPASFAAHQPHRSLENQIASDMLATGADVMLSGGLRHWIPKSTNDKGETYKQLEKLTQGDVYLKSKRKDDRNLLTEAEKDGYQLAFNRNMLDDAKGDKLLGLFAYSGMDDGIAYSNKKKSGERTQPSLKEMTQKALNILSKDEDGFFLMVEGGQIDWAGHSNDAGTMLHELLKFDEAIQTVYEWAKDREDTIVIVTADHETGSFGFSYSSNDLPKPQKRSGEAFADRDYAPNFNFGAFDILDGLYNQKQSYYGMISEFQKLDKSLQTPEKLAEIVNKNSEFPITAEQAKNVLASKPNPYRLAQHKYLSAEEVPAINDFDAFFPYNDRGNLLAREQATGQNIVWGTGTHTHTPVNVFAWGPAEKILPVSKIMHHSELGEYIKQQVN

[2] = biological target: phosphoinositide-specific phospholipase C (PI-PLC) (Bacillus cereus, UniProt P14262); experiment: inhibition of phospholipase activity of commercial PI-PLC on PI-containing large unilamellar vesicles (turbidity/aggregation assay); type: biochemical
phosphoinositide-specific phospholipase C (PI-PLC), sequence (P14262 32-329 limits assumed): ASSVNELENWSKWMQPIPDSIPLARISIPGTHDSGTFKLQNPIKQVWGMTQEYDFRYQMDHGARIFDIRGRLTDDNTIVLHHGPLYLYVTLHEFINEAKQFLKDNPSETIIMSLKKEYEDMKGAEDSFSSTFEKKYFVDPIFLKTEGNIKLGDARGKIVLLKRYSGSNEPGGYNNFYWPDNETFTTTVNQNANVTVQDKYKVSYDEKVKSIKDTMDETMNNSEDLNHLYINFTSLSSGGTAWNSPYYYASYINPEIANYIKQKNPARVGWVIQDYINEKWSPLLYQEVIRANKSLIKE

Q: Which results are given for `NCCc1ccc(S(=O)(=O)F)cc1` [AEBSF, 4-(2-aminoethyl) benzenesulfonyl fluoride hydrochloride]?
A: IC50 [1]: 350 µM; IC50 [2]: 18 µM
